Data reported in patent US20230285372A1, “Pharmaceutical use of (E)-3-arylheterocyclylprop-2-enoic acid derivatives” (MEDCURIUS INC., priority 2020, published 2023).
Counter-ions that a name gives are not always drawn. Like-named read-outs stand apart in the source and are kept apart here.

Tests used:
[1] = test system: MPTP-induced Parkinson's disease mouse; experiment: Rotarod test, MPTP-induced Parkinson's disease mouse; type: in vivo; conditions: L-DOPA 10 mg/kg qd; vs model group, p<0.0001
Procedure: (§1) Male C57 mouse were screened for their motor function by a mouse rod-rotating test, and unqualified ones were excluded from the test. […] MPTP was injected subcutaneously every 4 days in the model group and the drug administration group with a dosage of 25 mg/kg for 40 consecutive days. Each group of I-5 was administered once a day at 8:00 am and 8:00 pm (by intragastric administration), twice in total. […] The intragastric volume was 0.1 ml/10 g body weight, and the behavior test was started 40 days later. […] The storage time of the prepared liquid medicine was not more than 24 hours.
On the first day, the mouse acclimated to a rotating speed of 5 rpm for two times, each time for 5 minutes. On the second day, the rotarod turned at a speed of 10 rpm, the mouse acclimated to the speed for two times, each time for 5 minutes. On the third day, the rotarod turned at a speed of 15 rpm, the mouse acclimated to the speed for two times, each time for 3 minutes. On the fourth day, a behavioral test was started. The rotarod turned at a speed of 15 rpm for a period of 3 minutes. The time mouse spent on the rotarod (fall latency) was taken as an index for evaluation of their motor coordination. The test was repeated three times for each animal, with an interval of 30 minutes to eliminate the interference of exercise fatigue on the motion ability of animals.

[2] = test system: MPTP-induced Parkinson's disease mouse; experiment: Pole-climbing test, MPTP-induced Parkinson's disease mouse; type: in vivo; conditions: L-DOPA 10 mg/kg qd intragastric, 40 days; vs model group, p<0.0001
Procedure: as §1
A climbing pole in the pole-climbing test was a rough wooden pole with a diameter of 2 cm and a length of 50 cm. The bottom of the wooden pole was located in the mouse home cage and was vertically oriented. When the mouse was placed on top of the wooden pole, it would naturally descend to the bottom of the wooden pole and reach the base of the pole. […] The mouse should have a pre-acclimation period of 2 days prior to the test, training five times a day. To the test day, the time required for the […] to reach the bottom (incubation period) was taken as an evaluation index to observe the effect of the tested compound on the motion ability of the mouse.

α-synuclein protein = α-synuclein protein level in midbrain, Western blot, MPTP mouse; type: in vivo; conditions: L-DOPA 10 mg/kg; p>0.05
Description: (§2) The core pathological change of Parkinson's disease is the loss of dopaminergic neurons. Tyrosine hydroxylase (TH), the rate-limiting enzyme in dopamine synthesis, is the landmark protein of the dopaminergic neurons. Therefore, the decrease in its level indicates the loss of the dopaminergic neurons. A key protein for the occurrence and development of Parkinson's disease is α-synuclein protein, and the abnormal modification (hyperphosphorylation) of this protein can inhibit microtubule polymerization, enhance oxidative stress, and thus accelerate the death of the dopaminergic neurons.
Male C57 mouse were screened for their motor function by a mouse rod-rotating test, and unqualified ones were excluded from the test. […] MPTP was injected subcutaneously every 4 days in the model group and the drug administration group with a dosage of 25 mg/kg for 40 consecutive days. Each group of I-5 was administered once a day at 8:00 am and 8:00 pm (by intragastric administration), twice in total. […]
Tissues from all the animals were collected on the second day after the end of the behavioral experiment. […] The level of tyrosine hydroxylase (TH), a marker protein of dopaminergic neurons, was detected by immumohistochemistry, and α-synuclein protein level and phosphorylation level of the protein were detected by Western blot.

p-synuclein = experiment: Phosphorylated α-synuclein (p-synuclein) level in midbrain, Western blot, MPTP mouse; type: in vivo; conditions: L-DOPA 10 mg/kg; p>0.05
Description: as §2, §1
Tissues from all the animals were collected on the second day after the end of the behavioral experiment. Hearts from six animals in each group were perfused and fixed with paraformaldehyde for pathological analysis of paraffin sections. Brain tissue of the remaining animals was separated on ice, and brain areas (midbrain) related to Parkinson's disease were collected. After being frozen with liquid nitrogen, they were stored in a refrigerator at −80° C. for protein analysis. The level of tyrosine hydroxylase (TH), a marker protein of dopaminergic neurons, was detected by immumohistochemistry, and α-synuclein protein level and phosphorylation level of the protein were detected by Western blot.

HO-1 = HO-1 expression in HT-22 cytoplasm, Western Blot; type: cell-based, mouse; conditions: HT-22 cells, 1.25 μM and 0.625 μM, 24 hours, vs control group
Description: (§3) As a transcription factor, Nrf2 needs to enter the nucleus and combine with ARE sequence to play a role in transcriptional activation. Therefore, Nrf2 protein level in the nucleus is an important prerequisite for the activation of Nrf2 signaling pathway. NQO-1 and HO-1 are target genes regulated by Nrf2, and the increase of their protein levels is an important sign of activation of the Nrf2 signaling pathway.
(§4) HT-22 cells in logarithmic growth phase were selected, the culture medium was discarded, the cells were digested with 0.25% Trypsin containing EDTA, and cell suspension was made. Cell density was adjusted to 50000/ml with DMEM/F12 medium (containing 10% FBS and 1% double antibody) and it was inoculated to 6-well plate, with 2000 μL/well, the number of cells per well was 100, 000, and the cells were cultured in a cell incubator at 37° C. in an atmosphere containing 5% CO2 for 24 hours. Then, the medium of each well was replaced with new 1980 μL DMEM/F12 medium. […] After 24 hours, the cells were collected, nuclear protein and cytoplasmic protein were extracted, and the level of Nrf2 in the nucleus and the expression of NQO-1 and HO-1 in cytoplasm were detected by Western Blot.

NQO-1 = NQO-1 expression in HT-22 cytoplasm, Western Blot; type: cell-based, mouse; conditions: HT-22 cells, 1.25 μM and 0.625 μM, 24 hours, vs control group
Description: as §3, §4

HT-22 cells = experiment: Protective effect on HT-22 cell damage caused by L-glutamate monosodium salt; type: cell-based, mouse; conditions: Mus musculus, HT-22, 24 h, 15 mM L-glutamate, 24 hours
Procedure: (§5) Well-proliferated HT-22 cells, derived from mouse hippocampal neuronal cells in logarithmic growth phase, were selected, and they were counted after being subjected to trypsin digestion and dispersion. The cell density was adjusted with DMEM/F12 medium (containing 10% FBS and 1% double antibody). The cells were then inoculated in a 96-well plate at a density of 2,000 cells per well, and cultured in a cell incubator at 37° C. in atmosphere containing 5% CO2 for 24 hours. For the control group and the L-glutamate monosodium salt group (model group), serum-free DMEM/F12 medium was added, and the other wells were added with tested compounds of different concentrations; except that the serum-free DMEM/F12 medium was added to the control group. L-glutamate monosodium salt solution at the final concentration of 15 mM was added to the remaining wells. After 24 hours, the cell viability was detected with a luminescent cell viability assay kit.
as §5, with “group,” for “group.”
as §5, with “2.000” for “2,000”, “group,” for “group.”

Nrf2 = Nrf2 protein level in the nucleus of HT-22 cells, Western Blot; type: cell-based, mouse; conditions: 1.25 μM and 0.625 μM, 24 hours, vs control group
Description: as §3, §4

N[C@@H](Cc1ccc(O)c(O)c1)C(=O)O [L-DOPA, levodopa, reference compound]
fall latency in the Rotarod test [1]: significantly prolonged | latency of mouse reaching the base of the pole [2]: significantly shorten the latency | α-synuclein protein level in the midbrain (α-synuclein protein): no significant effect | p-synuclein protein level in the midbrain (p-synuclein): no significant effect

COC(=O)/C=C/C(=O)OC [DMF, dimethyl fumarate, reference compound]
protein level of HO-1 (HO-1): no statistical difference | protein level of NQO-1 (NQO-1): no statistical difference | viability at 0.078 µM (HT-22 cells; Table 1, Conc 0.078 μm, L-Glu alone 27.73 (I-5 32.92), read-out: cell viability): 37.6% | viability at 0.156 µM (HT-22 cells; Table 1, Conc 0.156 μm, L-Glu alone 27.73 (I-5 32.92), read-out: cell viability): 47.5% | viability at 0.313 µM (HT-22 cells; Table 1, Conc 0.313 μm, L-Glu alone 27.73 (I-5 32.92), read-out: cell viability): 52.8% | viability at 0.625 µM (HT-22 cells; Table 1, Conc 0.625 μm, L-Glu alone 27.73 (I-5 32.92), read-out: cell viability): 60% | viability at 1.25 µM (HT-22 cells; Table 1, Conc 1.25 μm, L-Glu alone 27.73 (I-5 32.92), read-out: cell viability): 53.3% | viability at 2.5 µM (HT-22 cells; Table 1, Conc 2.5 μm, L-Glu alone 27.73 (I-5 32.92), read-out: cell viability): 63.6% | viability at 10 µM (HT-22 cells; Table 1, Conc 10 μm, L-Glu alone 27.73 (I-5 32.92), read-out: cell viability): 70.2% | viability at 0.078 µM (HT-22 cells; Table 2, Conc 0.078 μM, L-Glu alone 27.83, read-out: Visibility %): 34.3% | viability at 0.156 µM (HT-22 cells; Table 2, Conc 0.156 μM, L-Glu alone 27.83, read-out: Visibility %): 34.9% | protein level of Nrf2 in the nucleus (Nrf2): no statistical difference
